The source of these data is ChEMBL document CHEMBL1158595, “2' biaryl amides as novel and subtype selective M1 agonists. Part II: Further optimization and profiling” (Bioorg Med Chem Lett, 2010).

The target in test [1] is T1, Muscarinic acetylcholine receptor M1 (Homo sapiens, UniProt P11229).
T1 sequence (P11229 whole entry): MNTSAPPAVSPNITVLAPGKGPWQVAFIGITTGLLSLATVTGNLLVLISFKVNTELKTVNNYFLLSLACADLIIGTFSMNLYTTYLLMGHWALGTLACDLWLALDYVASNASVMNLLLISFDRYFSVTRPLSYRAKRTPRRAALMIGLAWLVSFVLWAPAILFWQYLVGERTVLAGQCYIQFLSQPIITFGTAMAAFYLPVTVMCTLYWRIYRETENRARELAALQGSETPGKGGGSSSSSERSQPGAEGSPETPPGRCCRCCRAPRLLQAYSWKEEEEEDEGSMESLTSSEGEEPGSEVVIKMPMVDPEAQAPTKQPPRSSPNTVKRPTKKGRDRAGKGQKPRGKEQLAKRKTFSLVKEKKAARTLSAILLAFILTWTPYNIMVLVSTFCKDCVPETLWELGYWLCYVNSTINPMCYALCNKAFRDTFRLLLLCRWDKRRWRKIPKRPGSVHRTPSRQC
As to the kind of experiment: Agonist activity at human muscarinic M1 receptor expressed in CHO cells assessed as effect on acetylcholine-induced intracellular calcium level by FLIPR assay. It is filed as functional, cell-based.

The target in test [2] is T2, Muscarinic acetylcholine receptor M1 (Homo sapiens) (UniProt P11229).
T2 sequence (whole entry): T1 sequence (P11229 whole entry)
Kind of test: Intrinsic activity at human muscarinic M1 receptor expressed in CHO cells assessed as effect on acetylcholine-induced intracellular calcium level by FLIPR assay relative to acetylcholine. It is filed as functional, cell-based.

Test [3] has as its target Muscarinic acetylcholine receptor M3 (Homo sapiens, UniProt P20309). As to the kind of experiment: Inhibition of human muscarinic M3 receptor expressed in CHO cells. The test is classed as cell-based.

Bounds are passed on as bounds.

Muscarinic acetylcholine receptor M3, sequence (P20309 whole entry): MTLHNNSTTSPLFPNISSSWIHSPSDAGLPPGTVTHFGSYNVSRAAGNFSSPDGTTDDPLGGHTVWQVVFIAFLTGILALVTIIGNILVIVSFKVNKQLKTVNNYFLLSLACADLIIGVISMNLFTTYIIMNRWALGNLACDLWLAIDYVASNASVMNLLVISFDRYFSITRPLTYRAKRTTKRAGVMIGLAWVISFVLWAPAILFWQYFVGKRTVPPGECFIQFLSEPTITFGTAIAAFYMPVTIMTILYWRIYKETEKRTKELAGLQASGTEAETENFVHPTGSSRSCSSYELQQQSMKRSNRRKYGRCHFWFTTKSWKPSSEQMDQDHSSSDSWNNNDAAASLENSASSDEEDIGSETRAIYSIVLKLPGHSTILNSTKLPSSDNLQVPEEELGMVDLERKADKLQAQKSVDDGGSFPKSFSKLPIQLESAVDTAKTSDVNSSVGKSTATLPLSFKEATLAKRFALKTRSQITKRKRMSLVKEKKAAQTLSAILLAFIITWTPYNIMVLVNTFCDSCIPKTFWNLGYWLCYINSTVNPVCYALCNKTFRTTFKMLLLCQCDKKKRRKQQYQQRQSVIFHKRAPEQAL

Take `O=C(CCC1CCNCC1)c1ccccc1-c1cccc(Cl)c1`: in test [1], the concentration giving a half-maximal response (EC50) was greater than 10 µM.
For `CN(Cc1ccccc1-c1cccc(Cl)c1)C(=O)C1CCNCC1`, in test [1], the concentration for a half-maximal effect (EC50) was greater than 10 µM.
Still for that read-out and setting: the same measure for `O=C(OCC1CCNCC1)c1ccccc1-c1cccc(Cl)c1`: greater than 10 µM.
Consider `O=C(NCC1CCNCC1)c1sccc1-c1cccc(Cl)c1`, for which the EC50 in test [1] was greater than 10 µM. Also, in test [2], the Intrinsic activity was determined as 0%.
Consider `CC[C@H]1CNCC[C@@H]1CNC(=O)c1c(F)cccc1-c1cccc(Cl)c1`, for which the half-maximal effective concentration (EC50) in test [1] was 0.0398 µM. Moreover, the Intrinsic activity in test [2] came to 92%. This molecule also showed a half-maximal inhibitory concentration (IC50) in test [3] of 10 µM.
The matching figures for `O=C(NC[C@H]1CCNC[C@H]1F)c1c(F)cccc1-c1cccc(Cl)c1`: 0.158 µM, 68% and 10 µM.
Turning to `CC1CNCC=C1CNC(=O)c1c(-c2cccc(Cl)c2)ccc(Cl)c1F` (configuration not stated), the EC50 in test [1] is 0.158 µM. For the same molecule, the Intrinsic activity in test [2] worked out at 72%.
The matching figures for `Cc1cccc(C(=O)NCC2CCNCC2)c1-c1cccc(Cl)c1`: greater than 10 µM and 34%.
For the molecule `O=C(NCC1CCNCC1)c1cc(F)ccc1-c1cccc(Cl)c1`, the EC50 in test [1] was 0.0501 µM. The Intrinsic activity in test [2] amounted to 78%.
The matching figures for `O=C(NCC1CCNCC1)c1c(Cl)cccc1-c1cccc(Cl)c1`: 0.0631 µM and 109%.
Turning to `O=S(=O)(CCC1CCNCC1)c1ccccc1-c1cccc(Cl)c1`, the EC50 in test [1] was 0.0631 µM. In addition, the Intrinsic activity in test [2] amounted to 71%. The IC50 in test [3] is 0.02 µM.
Regarding `O=C(NCC1CCNCC1)c1ccc(F)cc1-c1cccc(Cl)c1`, the half-maximal effective concentration (EC50) in test [1] is greater than 10 µM. The Intrinsic activity in test [2] is 24%.
The matching figures for `CS(=O)(=O)N(Cc1c(F)cccc1-c1cccc(Cl)c1)CC1CCNCC1`: 1.58 µM and 51%.
For `CN(C(=O)CC1CCNCC1)c1ccccc1-c1cccc(Cl)c1`, the concentration giving a half-maximal response (EC50) in test [1] is greater than 10 µM.
For `O=C(NCC1CCNCC1)c1cccc(Cl)c1-c1cccc(Cl)c1`, the concentration for a half-maximal effect (EC50) in test [1] was greater than 10 µM. For the same molecule, the Intrinsic activity in test [2] amounted to 14%.
Consider `O=C(NCC1CCNCC1)c1c(F)cccc1-c1cc(Cl)ccc1Cl`, for which the EC50 in test [1] is 0.0316 µM. In test [2], the Intrinsic activity came out at 92%. Inhibition in test [3] was half-maximal at 1.26 µM (IC50).
`Fc1cccc(-c2cc(Cl)ccc2Cl)c1-c1nc(C2CCNCC2)no1`: the EC50 in test [1] was 0.501 µM. Besides, the Intrinsic activity in test [2] was determined as 65%. The molecule also showed an IC50 in test [3] of 3.98 µM.
Take `Cc1cccc(-c2cccc(Cl)c2)c1C(=O)NCC1CCNCC1`: the EC50 in test [1] is greater than 10 µM. In test [2], the Intrinsic activity was found to be 37%.
On the same counts, the results for `O=C(NCC1CCNCC1)c1cnccc1-c1cccc(Cl)c1` are greater than 10 µM and 20%.
On to `O=S(=O)(NCC1CCNCC1)c1ccccc1-c1cccc(Cl)c1`, for which the EC50 in test [1] is greater than 10 µM.
Turning to `O=C(NCC1(F)CCNCC1)c1c(F)cccc1-c1cccc(Cl)c1`, the EC50 in test [1] was 0.0631 µM. In addition, the Intrinsic activity in test [2] is 87%. This molecule showed an IC50 in test [3] of 1.26 µM.
Take `OC(CCC1CCNCC1)c1ccccc1-c1cccc(Cl)c1` (configuration not stated): the EC50 in test [1] is 0.001 µM. Moreover, the Intrinsic activity in test [2] worked out at 100%. Moreover, in test [3], the concentration for half-maximal inhibition (IC50) is 0.002 µM.
As for `O=C(NCC1CCNCC1)c1cccnc1-c1cccc(Cl)c1`, the 50% effective concentration (EC50) in test [1] was greater than 10 µM. In test [2], the Intrinsic activity is 0%.
Regarding `Fc1cccc(-c2cccc(Cl)c2)c1-c1noc(C2CCNCC2)n1`, in test [1], the half-maximal effective concentration (EC50) is greater than 10 µM.
As for `Cc1ccc(-c2cccc(Cl)c2)c(C(=O)NCC2CCNCC2)c1`, in test [1], the half-maximal effective concentration (EC50) is 1 µM. Besides, the Intrinsic activity in test [2] stood at 67%.
Consider `Clc1cccc(-c2ccccc2/C=C/CC2CCNCC2)c1`, for which, in test [1], the EC50 is 1 µM. Also, the Intrinsic activity in test [2] was 55%. The molecule further showed an IC50 in test [3] of 0.0126 µM.
`Clc1cccc(-c2ccccc2COCC2CCNCC2)c1`: in test [1], the EC50 was greater than 10 µM.
On to `O=C(NCC1CCNCC1)c1cccc(F)c1-c1cccc(Cl)c1`, for which the EC50 in test [1] was 5.01 µM. Further, the Intrinsic activity in test [2] stood at 45%.
As to `Fc1cccc(-c2cccc(Cl)c2)c1-c1noc(CC2CCNCC2)n1`, the EC50 in test [1] is greater than 10 µM.
On to `O=C(NCc1ccccc1-c1cccc(Cl)c1)C1CCNCC1`, for which the concentration giving a half-maximal response (EC50) in test [1] is 0.501 µM. Moreover, the Intrinsic activity in test [2] was found to be 81%. This molecule also gave an IC50 in test [3] of 2 µM.
In the case of `CC(=O)N(Cc1ccccc1-c1cccc(Cl)c1)CC1CCNCC1`, the EC50 in test [1] is 0.398 µM. Further, the Intrinsic activity in test [2] was determined as 70%.
Consider `O=C(CC1CCNCC1)Nc1ccccc1-c1cccc(Cl)c1`, for which the EC50 in test [1] is 7.94 µM. For the same molecule, in test [2], the Intrinsic activity was 43%.
On the same counts, the results for `O=C(NCC1CCNCC1)c1c(-c2cccc(Cl)c2)ccc(Cl)c1F` are 0.0251 µM and 80%.
The matching figures for `CN(C(=O)Cc1ccccc1-c1cccc(Cl)c1)C1CCNCC1`: 0.0501 µM and 7.8%.
The matching figures for `O=C(NCC1CCNCC1)c1c(F)cccc1-c1cccc(Cl)c1`: 0.0158 µM and 90%.
For the molecule `O=C(NCC1CCNCC1)c1ncccc1-c1cccc(Cl)c1`, the EC50 in test [1] is greater than 10 µM. For the same molecule, the Intrinsic activity in test [2] was 18%.
On the same counts, the results for `Cc1ccc(C(=O)NCC2CCNCC2)c(-c2cccc(Cl)c2)c1` are 0.158 µM and 77%.
Consider `O=C(NCC1=C(F)CNCC1)c1c(-c2cccc(Cl)c2)ccc(Cl)c1F`, for which, in test [1], the EC50 was 0.158 µM. Also, the Intrinsic activity in test [2] was 74%. In test [3], this molecule gave an IC50 of 10 µM.
With `O=C(NCCC1CCNCC1)c1ccccc1-c1cccc(Cl)c1`, the EC50 in test [1] was 3.16 µM. Moreover, the Intrinsic activity in test [2] came to 52%.
`O=C(NCC1CCNCC1)c1cc(Cl)ccc1-c1cccc(Cl)c1`: the EC50 in test [1] is 0.1 µM. For the same molecule, the Intrinsic activity in test [2] is 74%.
For the molecule `CN(CC1CCNCC1)S(=O)(=O)c1ccccc1-c1cccc(Cl)c1`, the concentration for a half-maximal effect (EC50) in test [1] is greater than 10 µM.
In the case of `O=C(Cc1ccccc1-c1cccc(Cl)c1)NC1CCNCC1`, the EC50 in test [1] is 0.158 µM. In test [2], the Intrinsic activity was 74%. For the same molecule, the concentration for half-maximal inhibition (IC50) in test [3] is 0.126 µM.
For `Clc1cccc(-c2ccccc2OCCC2CCNCC2)c1`, the EC50 in test [1] is greater than 10 µM.
Consider `C[C@H]1CNCC[C@H]1CNC(=O)c1c(F)cccc1-c1cccc(Cl)c1` (relative stereo), for which the half-maximal effective concentration (EC50) in test [1] is 0.02 µM. For the same molecule, the Intrinsic activity in test [2] stood at 92%. Further, 2.51 µM corresponded to half-maximal inhibition in test [3] (IC50).
Turning to `O=C(NCC1CCNCC1)c1ccc(Cl)cc1-c1cccc(Cl)c1`, in test [1], the EC50 was 0.1 µM. Besides, the Intrinsic activity in test [2] was 79%.
On to `Clc1cccc(-c2ccccc2CNCC2CCNCC2)c1`, for which the EC50 in test [1] was greater than 10 µM.
As for `Cn1cc(-c2cccc(Cl)c2)c(C(=O)NCC2CCNCC2)n1`, the EC50 in test [1] was greater than 10 µM. Moreover, the Intrinsic activity in test [2] stood at 0%.
The matching figures for `O=C(NCC1CCNCC1)c1ccncc1-c1cccc(Cl)c1`: greater than 10 µM and 3%.
